Measurements taken from US20020065326A1, “Patient oxygenation using stabilized fluorocarbon emulsions” (priority 1992, published 2002).
Where two headings read alike, the source gives them in different places. Marks after values point to notes of the source that are not given here.

What was measured:
[1] = in vivo
From the text: Traditionally, the molecular weight region from 460-550 g/mol has been considered optimal for blood substitute applications. The lower cutoff is related to the formation of gas emboli for fluorocarbons with vapor pressures greater than 20 torr. The upper cutoff is limited to compounds with organ retention times of less than 3 weeks.
The lower limit is defined by fluorocarbons with vapor pressures greater than 20 torr which causes gas emboli, while the upper limit is defined by fluorocarbons with organ retention times of less than 3 weeks.

[2] = Critical solution temperature (CST) versus hexane; assay type: physicochemical
Experimental: Critical solution temperature for fluorocarbon liquids was measured in the following manner: Equivolume mixtures of the test fluorocarbon and hydrocarbon (e.g., hexane) are placed in a sealed vial and submerged in a temperature controlled water bath. Samples are cooled until two distinct phases are present. At this point, the temperature is increased slowly. The lowest temperature at which the two phases are completely miscible (i.e., a single liquid phase) is defined as the CST.
For comparison purposes, all CST temperatures used in this patent are reported versus hexane. It is often not possible, however, to measure the CST for lipophilic fluorocarbons versus hexane, since the CSTs for these substances are very low. Thus, the CST for lipophilic substances is often measured in longer chain length hydrocarbons, and the value versus hexane is determined via extrapolation of linear plots of CST vs. alkane chain length.

[3] = critical solution temperature vs hexane; prior art minor components discussed in literature; cited from earlier work
[4] = cited from earlier work; for t½: organ retention half life, prior art / nonlipophilic fluorocarbons from literature
[5] = vs hexane, estimated from extrapolations of linear plots of CST vs. hydrocarbon chain length

| Compound | CSTH [3] [C] | t½ [4] [days] | further results |
| --- | --- | --- | --- |
| FC1(F)C(F)(F)C(F)(F)C2(F)C(F)(F)C(F)(F)C(F)(F)C(F)(F)C2(F)C1(F)F (stereo not drawn) [F-decalin, perfluorodecalin] |  |  | half-life ([1]; t½): 7 days; CSTH ([2]; critical solution temperature vs hexane, Present Study): 22 C |
| FC(F)(F)C(F)(F)C(F)(F)C(F)(F)C(F)(F)C(F)(F)C(F)(F)C(F)(F)C(F)(F)C(F)(F)Br [F-decyl bromide, perfluorodecyl bromide] |  |  | organ half-life versus prescribed cutoff [1]: less than 3 week; organ retention time compared with that predicted from the molecular weight [1]: less than be predicted from the molecular weight; t½ (calculated half life in vivo in organs of the RES) [1]: (18) days; half-life ([1]; t½ (calculated half life in vivo in organs of the RES)): ~18 days; critical solution temperature compared with prior art stabilizers (in words) ([2]; vs hexane, at comparable molecular weight): dramatically lower; CSTH [2, 5]: (19)^a C |
| FC1(F)OC(F)(F)C(F)(F)N(C(F)(F)C(F)(F)N2C(F)(F)C(F)(F)OC(F)(F)C2(F)F)C1(F)F [F-dimorpholinoethane] | 38 | 24 |  |
| FC1(F)OC(F)(F)C(F)(F)N(C(F)(F)C(F)(F)C(F)(F)C(F)(F)C(F)(F)N2C(F)(F)C(F)(F)OC(F)(F)C2(F)F)C1(F)F [F-dimorpholinopentane] | 60 | 280 |  |
| FC1(F)OC(F)(F)C(F)(F)N(C(F)(F)C(F)(F)C(F)(F)N2C(F)(F)C(F)(F)OC(F)(F)C2(F)F)C1(F)F [F-dimorpholinopropane] | 45 | 50 |  |
| FC(F)(F)C(F)(F)C(F)(F)C(F)(F)C(F)(F)C(F)(F)Br [F-hexyl bromide, 1-bromotridecafluorohexane] |  |  | half-life ([1]; in vivo): 2 days |
| FC(F)(F)C(F)(F)C(F)(F)C(F)(F)C(F)(F)C(F)(F)C(F)(F)C(F)(F)Br [F-octyl bromide, perfluorooctyl bromide] |  |  | organ retention time compared with that predicted from the molecular weight [1]: less than be predicted from the molecular weight; half-life ([1]; t½): 4 days; CSTH [2, 5]: (−19)^a C; ratio of half-lives for PFOB/FDC ([4]; used to scale FIG. 6 values): 4/7 |
| FC1(F)C(F)(F)C(F)(F)C2(F)C(F)(C1(F)F)C(F)(F)C(F)(F)C1(F)C(F)(F)C(F)(F)C(F)(F)C(F)(F)C12F (stereo not drawn) [F-perhydrophenanthrene] | 48 |  |  |
| FC1(F)OC(F)(F)C(F)(F)N(C2(F)C(F)(F)C(F)(F)C(F)(F)C(F)(F)C2(F)F)C1(F)F [F—N-cyclohexylmorpholine] | 31 | 13 |  |
| F-dip;peridinopropane | 56 | 282 |  |
| F-dipipendine | 36 |  |  |
| F-dipiperidinobutane | 72 | 1460 |  |
| F-dipiperidinoethane | 49 | 124 |  |
| F-dipiperidinomethane | 42 | 55 |  |
| F—N-methylcyclohexylpiperidine | 40 | 60 |  |
